# Measured values taken from US8273775B2, “Non-steroidal brassinosteroid mimetic” (priority 2006, dated 2012).
# Tested on: gene expression in Col-0 seedling shoots
# Test: Microarray analysis (ATH1 Affymetrix) after BL or abrasin treatment
# Type: in vivo, Arabidopsis
# Description: FIG. 14: Clustering of gene expression profiles by QT-clust analysis. Clusters illustrating the major patterns of the data sets. Points: BIK-30: 30 μM abrasin 30 min; BL-30: 1 μM brassinolide 30 min; DMSO-30: control DMSO 30 min; BIK-120: 30 μM abrasin 120 min; BL-120: 1 μM brassinolide 120 min; DMSO-120: control DMSO 120 min.
# Col-0 seeds were germinated vertically on ½ MS medium for 7 days under 16 h light/8 h dark cycles. The seedlings were overlaid with liquid ½ MS medium containing 1 μM brassinolide (BL, Fuji Chemical Industries, Ltd., Toyama, Japan), 30 μM abrasin (BIK, ChemBridge Corporation) and DMSO and treated for 30 and 120 min. The shoot parts were collected for RNA isolation. All sampling points were performed in three independent experiments. RNA was extracted using RNeasy kit (Qiagene). […] total RNA per array was used to hybridise the ATH1 Affymetrix Arabidopsis arrays according to standard procedure. The overrepresentation analyses were performed using BiNGO software (Maere et al., 2005).
# We performed a microarray analysis using the Arabidopsis whole genome chip (Affymetix) to determine whether abrasin activated the expression of BR-inducible genes at transcriptional level. Wild-type Col-0 seedlings were exposed to 1 μM BL, 30 μM ABRASIN and DMSO (mock-treatment) for two time points (30 min and 120 min) and the shoot parts were collected for RNA isolation. The analysis of the variance of the normalized gene expression data took in account the variability parameters affecting the expression level: type of hormone treatment, duration of treatment and the interaction between these two.
structure (smiles),measurement,setting,value
"CC(C)[C@H](C)[C@@H](O)[C@H](O)[C@@H](C)[C@H]1CC[C@H]2[C@@H]3COC(=O)[C@H]4C[C@H](O)[C@H](O)C[C@]4(C)[C@H]3CC[C@]12C [BL, brassinolide, reference compound]",Fold-change of gene AT2G42380 (bZIP transcription factor family protein),"30 min, 265877_at, Cluster 6",0.81
same,Fold-change of gene AT2G45080 (cyclin family protein),"30 min, 266124_at, Cluster 8",0.84
same,Fold-change AT1G04330 expressed protein,120 min,1.30
same,Fold-change AT1G05470 endonuclease/exonuclease/phosphatase family protein,120 min,1.05
same,Fold-change AT1G06520 Encodes a membrane associated mitochondrial localized protein,120 min,3.11
same,Fold-change AT1G06570 4-hydroxyphenylpyruvate dioxygenase (HPD),120 min,0.27
same,Fold-change AT1G10550 xyloglucan:xyloglucosyl transferase,120 min,2.19
same,Fold-change AT1G12710 F-box family protein,120 min,2.11
same,Fold-change AT1G12750 rhomboid family protein,120 min,0.78
same,Fold-change AT1G14130 2-oxoglutarate-dependent dioxygenase,120 min,1.31
same,Fold-change AT1G14700 purple acid phosphatase,120 min,0.59
same,Fold-change AT1G16640 transcriptional factor B3 family protein,120 min,0.95
same,Fold-change AT1G17230 leucine-rich repeat family protein,120 min,0.38
same,"Fold-change AT1G18020; AT1G17990 [AT1G18020, 12-oxophytodienoate reductase,",120 min,0.50
same,Fold-change AT1G19320 pathogenesis-related thaumatin family protein,120 min,0.38
same,Fold-change AT1G20350 mitochondrial import inner membrane translocase subunit,120 min,1.08
same,Fold-change AT1G21050 expressed protein,120 min,0.22
same,Fold-change AT1G21760 F-box family protein,120 min,0.60
same,Fold-change AT1G22360 UDP-glucoronosyl/UDP-glucosyl transferase family protein,120 min,0.29
same,Fold-change AT1G23080 auxin efflux carrier protein (PIN7),120 min,0.48
same,"Fold-change AT1G26800 zinc finger (C3HC4-type RING finger) family protein,",120 min,6.09
same,Fold-change AT1G27730 zinc finger (C2H2 type) family protein,120 min,0.71
same,Fold-change AT1G28130 encodes an IAA-amido synthase,120 min,0.28
same,Fold-change AT1G28190 expressed protein,120 min,0.58
same,Fold-change AT1G28480 glutaredoxin family protein,120 min,1.38
same,Fold-change AT1G31040 zinc-binding protein-related,120 min,1.12
same,Fold-change AT1G31310 hydroxyproline-rich glycoprotein family protein,120 min,0.74
same,Fold-change AT1G31770 ABC transporter family protein,120 min,0.64
same,Fold-change AT1G32190 expressed protein,120 min,0.11
same,Fold-change AT1G32690 expressed protein,120 min,0.48
same,Fold-change AT1G36940 expressed protein,120 min,0.38
same,Fold-change AT1G49780 U-box domain-containing protein,120 min,0.28
same,"Fold-change AT1G53870; AT1G53890 [AT1G53870, expressed protein",120 min,0.77
same,Fold-change AT1G54050 17.4 kDa class III heat shock protein (HSP17.4-CIII),120 min,3.58
same,Fold-change AT1G54200 expressed protein,120 min,2.06
same,Fold-change AT1G55920 serine O-acetyltransferase,120 min,1.01
same,Fold-change AT1G57560 myb family transcription factor (MYB50),120 min,2.45
same,Fold-change AT1G59590 expressed protein,120 min,1.03
same,Fold-change AT1G59660 nucleoporin family proteinmily,120 min,3.15
same,Fold-change AT1G62300 WRKY family transcription factor,120 min,0.21
same,Fold-change AT1G63050 membrane bound O-acyl transferase (MBOAT) family protein,120 min,0.40
same,"Fold-change AT1G66160 U-box domain-containing protein,",120 min,1.22
same,Fold-change AT1G66890 expressed protein,120 min,0.34
same,Fold-change AT1G68330 expressed protein,120 min,1.74
same,Fold-change AT1G68810 basic helix-loop-helix (bHLH) family protein,120 min,0.83
same,Fold-change AT1G69160 expressed protein,120 min,0.59
same,Fold-change AT1G70990 proline-rich family protein,120 min,2.22
same,Fold-change AT1G71030 Encodes a putative myb family transcription factor,120 min,0.13
same,Fold-change AT1G72060 expressed protein,120 min,0.92
same,Fold-change AT1G72180 leucine-rich repeat transmembrane protein kinase,120 min,0.22
same,"Fold-change AT1G72800 nuM1-related, contains",120 min,2.85
same,Fold-change AT1G75270 dehydroascorbate reductase,120 min,1.66
same,Fold-change AT1G75500 nodulin MtN21 family protein,120 min,0.56
same,"Fold-change AT1G76240 expressed protein,",120 min,0.16
same,Fold-change AT1G76410 zinc finger (C3HC4-type RING finger),120 min,0.43
same,Fold-change AT1G79110 expressed protein,120 min,0.77
same,Fold-change AT1G79630 protein phosphatase 2C family protein,120 min,0.37
same,Fold-change AT1G80440 kelch repeat-containing F-box family protein,120 min,2.93
same,Fold-change AT2G01300 expressed protein,120 min,4.83
same,"Fold-change AT2G01990 expressed protein,",120 min,1.06
same,Fold-change AT2G04240 zinc finger (C3HC4-type RING finger) family protein,120 min,2.81
same,Fold-change AT2G05540 glycine-rich protein,120 min,0.46
same,"Fold-change AT2G12290; AT4G19700 [AT2G12290, expressed protein]; [AT4G19700, expressed protein]",120 min,0.55
same,Fold-change AT2G18010 auxin-responsive family protein (SAUR10),120 min,9.13
same,Fold-change AT2G19800 expressed protein,120 min,1.78
same,Fold-change AT2G22860 phytosulfokines 2 (PSK2),120 min,0.44
same,"Fold-change AT2G23180 cytochrome P450, putative",120 min,0.42
same,Fold-change AT2G23320 WRKY family transcription factor,120 min,0.50
same,Fold-change AT2G26530 expressed protein,120 min,0.86
same,Fold-change AT2G26710 cytochrome p450 family (BAS1),120 min,5.42
same,Fold-change AT2G28510 Dof-type zinc finger domain-containing protein,120 min,0.51
same,Fold-change AT2G29340 short-chain dehydrogenase/reductase (SDR) family protein,120 min,1.29
same,Fold-change AT2G29990 pyridine nucleotide-disulphide oxidoreductase family protein,120 min,0.48
same,Fold-change AT2G30070 potassium transporter (KUP1),120 min,0.38
same,Fold-change AT2G31230 encodes a member of the ERF (ethylene response factor),120 min,2.74
same,Fold-change AT2G34650 protein kinase PINOID (PID),120 min,3.26
same,Fold-change AT2G36220 expressed protein,120 min,2.62
same,Fold-change AT2G37590 Dof-type zinc finger domain-containing protein,120 min,1.19
same,Fold-change AT2G38470 WRKY family transcription factor,120 min,0.57
same,Fold-change AT2G39710 aspartyl protease family protein,120 min,1.00
same,"Fold-change AT2G40340; AT2G40350 [AT2G40340, encodes a member of the DREB subfamily A-2 of ERF/AP2",120 min,1.68
same,Fold-change AT2G41250 haloacid dehalogenase-like hydrolase family protein,120 min,0.44
same,Fold-change AT2G41640 expressed protein,120 min,1.43
same,Fold-change AT2G42280 basic helix-loop-helix (bHLH) family protein,120 min,0.41
same,"Fold-change AT2G43060 expressed protein, similar to cDNA bHLH transcription factor",120 min,0.36
same,Fold-change AT2G43280 far-red impaired responsive family protein,120 min,0.51
same,Fold-change AT2G43290 calmodulin-like protein (MSS3),120 min,2.99
same,Fold-change AT2G44130 kelch repeat-containing F-box family protein,120 min,6.30
same,Fold-change AT2G44500 expressed protein,120 min,2.06
same,Fold-change AT2G45210 auxin-responsive protein-related,120 min,0.21
same,Fold-change AT2G45680 TCP family transcription factor,120 min,0.82
same,Fold-change AT2G46225 Encodes a subunit of the WAVE complex,120 min,0.47
same,Fold-change AT2G47440 DNAJ heat shock N-terminal domain-containing protein,120 min,2.23
same,"Fold-change AT3G04210 disease resistance protein (TIR-NBS class), putative,",120 min,1.00
same,Fold-change AT3G09920 phosphatidylinositol-4-phosphate 5-kinase family protein,120 min,0.42
same,Fold-change AT3G12920 expressed protein,120 min,0.41
same,Fold-change AT3G13040 myb family transcription factor,120 min,0.54
same,Fold-change AT3G13510 expressed protein,120 min,0.83
same,Fold-change AT3G13980 expressed protein,120 min,0.45
same,Fold-change AT3G14370 protein kinase family protein,120 min,3.50
same,Fold-change AT3G14560 expressed protein,120 min,0.50
same,Fold-change AT3G16570 rapid alkalinization factor (RALF) family protein,120 min,0.87
same,Fold-change AT3G17860 expressed protein,120 min,0.74
same,Fold-change AT3G18830 polyol/cyclitol/monosaccharide-H+-symporte,120 min,1.14
same,Fold-change AT3G19380 U-box domain-containing protein,120 min,0.27
same,Fold-change AT3G23030 auxin-responsive protein/indoleacetic acid-induced protein 2 (IAA2),120 min,0.39
same,Fold-change AT3G23550 MATE efflux family protein,120 min,0.31
same,Fold-change AT3G25710 basic helix-loop-helix (bHLH) family protein,120 min,0.53
same,Fold-change AT3G25900 homocysteine S-methyltransferase 1 (HMT-1),120 min,2.22
same,Fold-change AT3G26910 hydroxyproline-rich glycoprotein family protein,120 min,0.60
same,Fold-change AT3G30180 cytochrome p450 enzyme,120 min,0.07
same,"Fold-change AT3G46880 expressed protein,",120 min,0.60
same,Fold-change AT3G47800 aldose 1-epimerase family protein,120 min,0.26
same,Fold-change AT3G48970 copper-binding family protein,120 min,0.59
same,Fold-change AT3G49810 U-box domain-containing protein,120 min,0.56
same,Fold-change AT3G50650 scarecrow-like transcription factor 7 (SCL7),120 min,1.82
same,Fold-change AT3G50660 steroid 22-alpha-hydroxylase (CYP90B1) (DWF4),120 min,0.02
same,Fold-change AT3G50750 brassinosteroid signalling positive regulator-related (BEH1),120 min,0.35
same,Fold-change AT3G52490 heat shock protein-related,120 min,1.08
same,Fold-change AT3G53810 lectin protein kinase,120 min,1.19
same,"Fold-change AT3G54950 patatin-related,",120 min,0.39
same,Fold-change AT3G55120 chalcone-flavanone isomerase,120 min,0.68
same,Fold-change AT3G55150 exocyst subunit EXO70 family protein,120 min,0.13
same,Fold-change AT3G55840 expressed protein,120 min,7.41
same,Fold-change AT3G61460 zinc finger (C3HC4-type RING finger) family protein (BRH1),120 min,0.43
same,Fold-change AT3G63300 expressed protein,120 min,1.13
same,Fold-change AT4G01680 myb family transcription factor (MYB55),120 min,0.14
same,Fold-change AT4G02410 lectin protein kinase family protein,120 min,0.59
same,"Fold-change AT4G08040 1-aminocyclopropane-1-carboxylate synthase, putative",120 min,0.02
same,Fold-change AT4G09460 myb family transcription factor,120 min,2.76
same,Fold-change AT4G12390 invertase/pectin methylesterase inhibitor family protein,120 min,0.66
same,Fold-change AT4G12410 auxin-responsive family protein,120 min,0.44
same,Fold-change AT4G14130 xyloglucan:xyloglucosyl transferase,120 min,0.08
same,Fold-change AT4G15975 zinc finger (C3HC4-type RING finger) family protein,120 min,1.05
same,Fold-change AT4G16146 expressed protein,120 min,0.55
same,Fold-change AT4G16563 aspartyl protease family protein,120 min,2.89
same,Fold-change AT4G16670 expressed protein,120 min,0.35
